Measurements: PubChem BioAssay AID1259411 (Chemical Carcinogenesis Research Information System (CCRIS), 2018)
Active and inactive are the calls of the source. The rule behind the calls is not given here.

System: rodent carcinogenicity bioassays, tumor incidence
Assay: CCRIS carcinogenicity studies
Summary of the method: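 NCI-built, expert-reviewed records of carcinogenicity and related test outcomes (mutagenicity, tumor promotion/inhibition) compiled from published and report sources, historical span 1985-2011, not updated.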

Measured: carcinogen call

O=CCCCC=O
inactive: Species: MOUSE, Strain/Sex: B6C3F1/FEMALE, Route: INHALATION, Dose: 0, 62.5, 125, 250 PPM 6 HR/D 5 D/WK FOR 104 WK (STUDY DURATION: 104 WK), Dose: 0, 62.5, 125, 250 PPM 6 HR/D 5 D/WK FOR 104 WK (STUDY DURATION: 104 WK) inactive; negative | Species: MOUSE, Strain/Sex: B6C3F1/FEMALE, Route: INHALATION, Dose: 0, 100 PPB 6 HR/D 5 D/WK FOR 52 OR 78 WK (STUDY DURATION: 78 WK) inactive; negative | Species: MOUSE, Strain/Sex: B6C3F1/MALE, Route: INHALATION, Dose: 0, 62.5, 125, 250 PPM 6 HR/D 5 D/WK FOR 104 WK (STUDY DURATION: 104 WK), Dose: 0, 62.5, 125, 250 PPM 6 HR/D 5 D/WK FOR 104 WK (STUDY DURATION: 104 WK) inactive; negative | Species: MOUSE, Strain/Sex: B6C3F1/MALE, Route: INHALATION, Dose: 0, 100 PPB 6 HR/D 5 D/WK FOR 52 OR 78 WK (STUDY DURATION: 78 WK) inactive; negative | Species: RAT, Strain/Sex: F344/FEMALE, Route: ORAL, Dose: 0, 50, 250, 1000 PPM IN DRINKING WATER FOR 104 WK (STUDY DURATION: 104 WK), Dose: 0, 50, 250, 1000 PPM IN DRINKING WATER FOR 104 WK (STUDY DURATION: 104 WK) inactive; negative | Species: RAT, Strain/Sex: F344/MALE, Route: ORAL, Dose: 0, 50, 250, 1000 PPM IN DRINKING WATER FOR 104 WK (STUDY DURATION: 104 WK), Dose: 0, 50, 250, 1000 PPM IN DRINKING WATER FOR 104 WK (STUDY DURATION: 104 WK) inactive; negative | Species: RAT, Strain/Sex: F344/N/FEMALE, Route: INHALATION, Dose: 0, 250, 500, 750 PPM 6 HR/D 5 D/WK FOR 104 WK (STUDY DURATION: 104 WK), Dose: 0, 250, 500, 750 PPM 6 HR/D 5 D/WK FOR 104 WK (STUDY DURATION: 104 WK) inactive; negative | Species: RAT, Strain/Sex: F344/N/MALE, Route: INHALATION, Dose: 0, 250, 500, 750 PPM 6 HR/D 5 D/WK FOR 104 WK (STUDY DURATION: 104 WK), Dose: 0, 250, 500, 750 PPM 6 HR/D 5 D/WK FOR 104 WK (STUDY DURATION: 104 WK) inactive; negative | Species: Rat, Strain/Sex: Fischer 344/Male (80/Group), Route: Oral, Dose: 0, 50, 250, 1000 ppm (0; 3.6; 17.1; 63.9 mg/kg/d) in drinking water for 104 wk, study duration 104 wk, Dose: 0, 50, 250, 1000 ppm (0; 3.6; 17.1; 63.9 mg/kg/d) in drinking water for 104 wk, study duration 104 wk inactive; negative
active: Species: Rat, Strain/Sex: Fischer 344/Female (80/Group), Route: Oral, Dose: 0, 50, 250, 1000 ppm (0; 5.5; 25.1; 85.9 mg/kg/d) in drinking water for 104 wk, study duration 104 wk, Dose: 0, 50, 250, 1000 ppm (0; 5.5; 25.1; 85.9 mg/kg/d) in drinking water for 104 wk, study duration 104 wk, Tumor Site: Type of Lesion: Large granular lymphocyte leukemia (24, 41, 41, 53/100 animals) active; positive

S=[Se]
inactive: Species: MOUSE, Strain/Sex: B6C3F1/MALE, Route: GAVAGE, Dose: 0, 20, 100 MG/KG IN 0.5% AQ CMC, Dose: 0, 20, 100 MG/KG IN 0.5% AQ CMC inactive; negative | Species: MOUSE, Strain/Sex: ICR/FEMALE, Route: DERMAL, Dose: 0, 0.5, 1.0 MG/KG IN SALINE SOLN CONT 0.5% CMC 3/WK FOR 86 WK, Dose: 0, 0.5, 1.0 MG/KG IN SALINE SOLN CONT 0.5% CMC 3/WK FOR 86 WK inactive; negative | Species: MOUSE, Strain/Sex: ICR/MALE, Route: DERMAL, Dose: 0, 0.5, 1.0 MG/KG IN SALINE SOLN CONT 0.5% CMC 3/WK FOR 86 WK, Dose: 0, 0.5, 1.0 MG/KG IN SALINE SOLN CONT 0.5% CMC 3/WK FOR 86 WK inactive; negative
active: Species: MOUSE, Strain/Sex: B6C3F1/FEMALE, Route: GAVAGE, Dose: 0, 20, 100 MG/KG IN 0.5% AQ CMC, Dose: 0, 20, 100 MG/KG IN 0.5% AQ CMC, Tumor Site: Type of Lesion: LUNG: ALVEOLAR/BRONCHIOLAR ADENOMA OR CARCINOMA, LIVER: HEPATOCELLULAR CARCINOMA active; positive | Species: RAT, Strain/Sex: F344/FEMALE, Route: GAVAGE, Dose: 0, 3, 15 MG/KG IN 0.5% AQ CMC, Dose: 0, 3, 15 MG/KG IN 0.5% AQ CMC, Tumor Site: Type of Lesion: LIVER: HEPATOCELLULAR CARCINOMA OR NEOPLASTIC NODULE active; positive | Species: RAT, Strain/Sex: F344/MALE, Route: GAVAGE, Dose: 0, 3, 15 MG/KG IN 0.5% AQ CMC, Dose: 0, 3, 15 MG/KG IN 0.5% AQ CMC, Tumor Site: Type of Lesion: LIVER: HEPATOCELLULAR CARCINOMA OR NEOPLASTIC NODULE active; positive

CCOCn1c(-c2ccc(Cl)cc2)c(C#N)c(Br)c1C(F)(F)F
inactive: Species: Mouse, Strain/Sex: CD-1/Female (65/group), Route: Oral, Dose: 0, 20, 120, 240 ppm in diet for 80 wk, Dose: 0, 20, 120, 240 ppm in diet for 80 wk inactive; negative (study details not given in source; purity 94.5%) | Species: Mouse, Strain/Sex: CD-1/Male (65/group), Route: Oral, Dose: 0, 20, 120, 240 ppm in diet for 80 wk, Dose: 0, 20, 120, 240 ppm in diet for 80 wk inactive; negative (study details not given in source; purity 94.5%) | Species: Rat, Strain/Sex: Sprague-Dawley/Female (65/group), Route: Oral, Dose: 0, 60, 300, 600 ppm in diet for up to 104 wk, Dose: 0, 60, 300, 600 ppm in diet for up to 104 wk inactive; negative (study details not given in source; purity 94.5%) | Species: Rat, Strain/Sex: Sprague-Dawley/Male (65/group), Route: Oral, Dose: 0, 60, 300, 600 ppm in diet for up to 104 wk, Dose: 0, 60, 300, 600 ppm in diet for up to 104 wk inactive; negative (study details not given in source; purity 94.5%)

O=[N+]([O-])c1cccc2c1ccc1c3ccccc3ccc21
inactive: Species: MOUSE, Strain/Sex: ICR/FEMALE, Route: INTRAPERITONEAL, Dose: 0, 100 NMOL (TOTAL DOSE) ADMINISTERED IN 3 SUBDOSES OF 1/7, 2/7, AND 4/7 ON DAYS 1, 8 AND 15 OF LIFE, RESPECTIVELY (STUD inactive; negative | Species: MOUSE, Strain/Sex: ICR/MALE, Route: INTRAPERITONEAL, Dose: 0, 100 NMOL (TOTAL DOSE) ADMINISTERED IN 3 SUBDOSES OF 1/7, 2/7, AND 4/7 ON DAYS 1, 8 AND 15 OF LIFE, RESPECTIVELY (STUD inactive; negative

O=[N+]([O-])c1ccc2ccc3ccc([N+](=O)[O-])c4ccc1c2c34
active: Species: RAT, Strain/Sex: F344/MALE, Route: SUBCUTANEOUS, Dose: 0, 0.002, 0.02 MG 2/WK FOR 10 WK (STUDY DURATION: 320 D), Dose: 0, 0.002, 0.02 MG 2/WK FOR 10 WK (STUDY DURATION: 320 D), Tumor Site: Type of Lesion: INJECTION SITE: SARCOMA active; positive | Species: RAT, Strain/Sex: STRAIN CD/FEMALE, Route: INTRAGASTRIC, Dose: 0, 10 UMOL IN DMSO 3/WK FOR 4 WK (TOTAL DOSE: 16 UMOL/RAT) (STUDY DURATION: 78 WK), Tumor Site: Type of Lesion: ADRENAL GLAND: PHEOCHROMOCYTOMA, CORTICAL ADENOMA, PITUITARY GLAND: CARCINOMA, LIVER: HYPERPLASTIC NODULES, Tumor Site: Type of Lesion: ADRENAL GLAND: PHEOCHROMOCYTOMA, CORTICAL ADENOMA, PITUITARY GLAND: CARCINOMA, LIVER: HYPERPLASTIC NODULES active; positive | Species: RAT, Strain/Sex: STRAIN CD/FEMALE, Route: INTRAGASTRIC, Dose: 0, 10 UMOL IN DMSO 3/WK FOR 4 WK (TOTAL DOSE: 16 UMOL/RAT) (STUDY DURATION: 78 WK), Tumor Site: Type of Lesion: MAMMARY GLAND: ADENOCARCINOMA, FIBROADENOMA active; positive | Species: RAT, Strain/Sex: STRAIN CD/FEMALE, Route: INTRAPERITONEAL, Dose: 0, 10 UMOL IN DMSO 3/WK FOR 4 WK (TOTAL DOSE: 16 UMOL/RAT) (STUDY DURATION: 78 WK), Tumor Site: Type of Lesion: HEMATOPOIETIC SYSTEM: HISTIOCYTOMA, LEUKEMIA active; positive | Species: RAT, Strain/Sex: STRAIN CD/FEMALE, Route: INTRAPERITONEAL, Dose: 0, 10 UMOL IN DMSO 3/WK FOR 4 WK (TOTAL DOSE: 16 UMOL/RAT) (STUDY DURATION: 78 WK), Tumor Site: Type of Lesion: MAMMARY GLAND: ADENOCARCINOMA active; positive | Species: RAT, Strain/Sex: STRAIN-CD/FEMALE, Route: SUBCUTANEOUS, Dose: 0, 6.3 UMOL (TOTAL DOSE) ADMINISTERED OVER 8 WK BEGINNING ON DAY OF BIRTH (STUDY DURATION: 67 WK), Tumor Site: Type of Lesion: INTEGUMENTARY SYSTEM: MALIGNANT FIBROUS HISTIOCYTOMA, HEMATOPOIETIC SYSTEM: LEUKEMIA active; positive

C#C[C@]1(OC(C)=O)CC[C@H]2[C@@H]3CCC4=C[C@@H](OC(C)=O)CC[C@@H]4[C@H]3CC[C@@]21C
active: Species: MOUSE, Route: ORAL, Tumor Site: Type of Lesion: MAMMARY GLAND active; positive | Species: RAT, Route: ORAL, Tumor Site: Type of Lesion: MAMMARY GLAND active; positive
